The source made the active and inactive calls. The rule behind the calls is not given here.
Tests used:
[1] = tested on: Triticum aestivum; assay: Phytotoxicity in Triticum aestivum (wheat) assessed as injury at 10 g/ha post emergence application measured after 21 days after treatment; assay type: organism-based; settings: in vivo, other, 504 h
[2] = tested on: Triticum aestivum; assay: Phytotoxicity in Triticum aestivum (wheat) assessed as injury at 1 g/ha post emergence application measured after 21 days after treatment; assay type: organism-based; settings: in vivo, other, 504 h
[3] = tested on: Alopecurus myosuroides; assay: Herbicidal activity against Alopecurus myosuroides assessed as killing at 30 g/ha post emergence application measured after 21 days after treatment; assay type: functional, organism-based
[4] = tested on: Alopecurus myosuroides; assay: Herbicidal activity against Alopecurus myosuroides assessed as killing at 10 g/ha post emergence application measured after 21 days after treatment; assay type: functional
[5] = tested on: Alopecurus myosuroides; assay: Herbicidal activity against Alopecurus myosuroides assessed as killing at 0.3 g/ha post emergence application measured after 21 days after treatment; assay type: functional, organism-based
[6] = tested on: Galium aparine; assay: Herbicidal activity against Galium aparine assessed as killing at 12 g/ha measured after 21 days after treatment by time-course analysis; assay type: functional
[7] = tested on: Stellaria media; assay: Ratio of compound ED90 to ioxynil ED90 for herbicidal activity against Stellaria media
[8] = tested on: Viola arvensis; assay: Ratio of compound ED90 to ioxynil ED90 for herbicidal activity against Viola arvensis
[9] = target: T1, Protoporphyrinogen oxidase 2 (Spinacia oleracea) (UniProt Q94IG7); assay: Inhibition of Stellaria media protoporphyinogen oxidase assessed as herbicidal activity at 0.3 g/ha measured after 2 days after treatment under greenhouse by time-course analysis; design: scale not given: the % may be the effect or the level left
T1 sequence (whole entry): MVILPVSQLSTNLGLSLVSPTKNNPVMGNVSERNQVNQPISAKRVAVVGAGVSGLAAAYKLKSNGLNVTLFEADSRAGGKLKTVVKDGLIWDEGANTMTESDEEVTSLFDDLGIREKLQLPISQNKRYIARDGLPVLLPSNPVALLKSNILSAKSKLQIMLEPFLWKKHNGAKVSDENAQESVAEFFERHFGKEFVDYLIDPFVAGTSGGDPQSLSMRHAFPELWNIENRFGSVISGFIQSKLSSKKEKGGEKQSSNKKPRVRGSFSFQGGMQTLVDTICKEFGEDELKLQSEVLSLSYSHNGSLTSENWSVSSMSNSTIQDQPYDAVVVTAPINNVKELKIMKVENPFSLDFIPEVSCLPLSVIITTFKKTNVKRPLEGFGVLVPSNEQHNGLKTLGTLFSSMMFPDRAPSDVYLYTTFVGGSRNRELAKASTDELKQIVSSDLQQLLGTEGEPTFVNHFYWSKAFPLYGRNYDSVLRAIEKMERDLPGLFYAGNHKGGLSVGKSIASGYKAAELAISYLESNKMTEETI

[10] = target: T1, Protoporphyrinogen oxidase 2 (Spinacia oleracea); assay: Inhibition of Stellaria media protoporphyinogen oxidase assessed as herbicidal activity at 0.3 g/ha measured after 21 days after treatment under greenhouse by time-course analysis; design: scale not given: the % may be the effect or the level left
[11] = target: T2, Protoporphyrinogen oxidase, chloroplastic (Nicotiana tabacum) (UniProt O24163); assay: Inhibition of Veronica hederaefolia protoporphyrinogen oxidase by post-emergence herbicidal activity assay; settings: Veronica hederifolia
T2 sequence (whole entry): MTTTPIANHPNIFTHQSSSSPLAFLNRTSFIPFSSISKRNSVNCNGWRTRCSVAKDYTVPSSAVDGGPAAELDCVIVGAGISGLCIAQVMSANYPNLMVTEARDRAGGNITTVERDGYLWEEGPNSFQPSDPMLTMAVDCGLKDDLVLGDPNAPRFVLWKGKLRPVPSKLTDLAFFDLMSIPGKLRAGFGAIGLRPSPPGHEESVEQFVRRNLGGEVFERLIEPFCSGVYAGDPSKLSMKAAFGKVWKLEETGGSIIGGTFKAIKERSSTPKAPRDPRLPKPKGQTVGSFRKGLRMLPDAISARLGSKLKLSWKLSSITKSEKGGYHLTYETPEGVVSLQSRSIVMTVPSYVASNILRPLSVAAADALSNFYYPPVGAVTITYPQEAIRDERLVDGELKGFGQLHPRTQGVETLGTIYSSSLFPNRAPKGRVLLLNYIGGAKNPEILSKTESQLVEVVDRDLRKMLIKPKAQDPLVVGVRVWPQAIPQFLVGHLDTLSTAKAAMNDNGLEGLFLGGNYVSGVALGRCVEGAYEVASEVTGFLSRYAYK

[12] = tested on: Veronica hederifolia; assay: Herbicidal activity against Veronica hederaefolia assessed as killing at 100 g/ha post emergence application measured after 21 days after treatment; assay type: functional
[13] = tested on: Veronica hederifolia; assay: Herbicidal activity against Veronica hederaefolia assessed as killing at 30 g/ha post emergence application measured after 21 days after treatment; assay type: functional
[14] = tested on: Veronica hederifolia; assay: Herbicidal activity against Veronica hederaefolia assessed as killing at 10 g/ha post emergence application measured after 21 days after treatment; assay type: functional
[15] = tested on: Veronica hederifolia; assay: Herbicidal activity against Veronica hederaefolia assessed as killing at 0.3 g/ha post emergence application measured after 21 days after treatment; assay type: functional
[16] = tested on: Viola arvensis; assay: Herbicidal activity against Viola arvensis assessed as killing at 300 g/ha post emergence application measured after 21 days after treatment; assay type: functional
[17] = tested on: Viola arvensis; assay: Herbicidal activity against Viola arvensis assessed as killing at 100 g/ha post emergence application measured after 21 days after treatment; assay type: functional
[18] = tested on: Viola arvensis; assay: Herbicidal activity against Viola arvensis assessed as killing at 0.3 g/ha post emergence application measured after 21 days after treatment; assay type: functional
[19] = tested on: Stellaria media; assay: Herbicidal activity against Stellaria media assessed as killing at 300 g/ha post emergence application measured after 21 days after treatment; assay type: functional
[20] = tested on: Stellaria media; assay: Herbicidal activity against Stellaria media assessed as killing at 30 g/ha post emergence application measured after 21 days after treatment; assay type: functional
[21] = tested on: Stellaria media; assay: Herbicidal activity against Stellaria media assessed as killing at 10 g/ha post emergence application measured after 21 days after treatment; assay type: functional
[22] = tested on: Stellaria media; assay: Herbicidal activity against Stellaria media assessed as killing at 0.3 g/ha post emergence application measured after 21 days after treatment; assay type: functional
[23] = tested on: Galium aparine; assay: Herbicidal activity against Galium aparine assessed as killing at 1 g/ha post emergence application measured after 21 days after treatment; assay type: functional
[24] = tested on: Galium aparine; assay: Herbicidal activity against Galium aparine assessed as killing at 0.3 g/ha post emergence application measured after 21 days after treatment; assay type: functional
[25] = tested on: Avena fatua; assay: Herbicidal activity against Avena fatua assessed as killing at 300 g/ha post emergence application measured after 21 days after treatment; assay type: functional
[26] = tested on: Avena fatua; assay: Herbicidal activity against Avena fatua assessed as killing at 100 g/ha post emergence application measured after 21 days after treatment; assay type: functional
[27] = tested on: Avena fatua; assay: Herbicidal activity against Avena fatua assessed as killing at 10 g/ha post emergence application measured after 21 days after treatment; assay type: functional
[28] = tested on: Viola arvensis; assay: Herbicidal activity against Viola arvensis assessed as killing at 10 g/ha post emergence application measured after 21 days after treatment; assay type: functional
[29] = tested on: Hordeum vulgare; assay: Phytotoxicity in Hordeum vulgare (barley) assessed as injury at 300 g/ha pre emergence application measured after 21 days after treatment; assay type: organism-based; settings: in vivo, other, 504 h
[30] = tested on: Hordeum vulgare; assay: Phytotoxicity in Hordeum vulgare (barley) assessed as injury at 100 g/ha pre emergence application measured after 21 days after treatment; assay type: organism-based; settings: in vivo, other, 504 h
[31] = tested on: Hordeum vulgare; assay: Phytotoxicity in Hordeum vulgare (barley) assessed as injury at 3 g/ha post emergence application measured after 21 days after treatment; assay type: organism-based; settings: in vivo, other, 504 h
[32] = tested on: Triticum aestivum; assay: Phytotoxicity in Triticum aestivum (wheat) assessed as injury at 100 g/ha pre emergence application measured after 21 days after treatment; assay type: organism-based; settings: in vivo, other, 504 h

CCOC(=O)COc1cc(-c2nn(C)c(OC(F)F)c2Cl)c(F)cc1Cl [PYRAFLUFEN-ETHYL]
Activity [1]: 11%
Activity [2]: Non-toxic
Activity [3]: inactive
Activity [4]: 11%
Activity [5]: inactive
Activity [6]: >90%
Ratio [7]: 166
Ratio [8]: 10
Activity [9]: 90%
Activity [10]: > 90%
ED90 [11]: 1 gAi/ha
Activity [12]: 21%
Activity [13]: 11%
Activity [14]: 100%
Activity [15]: 40%
Activity [16]: 50%
Activity [17]: 40%
Activity [18]: 21%
Activity [19]: 100%
Activity [20]: 40%
Activity [21]: 100%
Activity [22]: 90%
Activity [23]: 80%
Activity [24]: 60%
Activity [25]: 21%
Activity [26]: 1%
Activity [27]: 21%
Activity [28]: 100%
Activity [29]: 21%
Activity [30]: 1%
Activity [31]: 1%
Activity [32]: 1%
